Source: article PMC12388496, “Discovery of (E)-1,3-Diphenyl-2-Propen-1-One Derivatives as Potent and Orally Active NLRP3 Inflammasome Inhibitors for Colitis” (Molecules, 2025)

Legend:
[1] = MTT assay, HepaRG cytotoxicity; format: cell-based; conditions: human, HepaRG cells, n = 3
Method: HepaRG cells in the logarithmic growth phase (10^5 cells/mL), inoculate them into a 96-well plate, and culture overnight in a 37 °C, 5% CO2 incubator. Add compounds at different concentrations and continue culturing for 24 h. Add 20 μL of MTT solution, incubate for 4 h, discard the supernatant, and add DMSO to dissolve.

[2] = test system: IL-1β secretion in BMDM cells (NLRP3 inflammasome); experiment: ELISA of IL-1β secretion in LPS/nigericin-treated BMDM cells; format: cell-based; conditions: Mus musculus; 20 µM; LPS/nigericin-treated BMDM cells; mean ± S.E.M. (n = 3); read-out: IL-1β Inhibition Rate (%)
Method: When L929 cells reach the logarithmic phase, collect the cell supernatant. Filter the supernatant using a 0.22 μm filter and store it at −20 °C for future use. The 7-week-old C57BL/6 mice were selected as the source of primary bone marrow macrophages. The mice were euthanized using the cervical dislocation method. The ends of the femurs were cut, and the bone marrow was flushed into a 15 mL centrifuge tube using a 5 mL syringe. Once all the bone marrow was collected, an appropriate amount of red blood cell lysis buffer was added to the centrifuge tube. The mixture was incubated for 3–5 min, with repeated pipetting to thoroughly lyse the red blood cells. The cells were then centrifuged and collected. Add 30–40% L929 cell supernatant or M-CSF stimulatory factor to the culture dish. Culture the cells in a cell incubator at 37 °C with 5% CO2. Observe the cell condition daily, and once most cells have adhered to the surface, proceed with subsequent experiments.
Inoculate 1.0 × 10^5 BMDMs cells per well into a 96 well plate and culture overnight. Stimulate the cells with lipopolysaccharide (LPS) at a concentration of 0.2 μg/mL for 3 h, then add different concentrations of the test compounds and incubate for 30 min. Finally, add Nigericin at a concentration of 10 μM to continue the induction for 30 min. Collect the cell supernatant and measure the IL-1β secretion level in the supernatant using an ELISA kit, following the instructions provided, and calculate the IC50 value based on the relevant calculations. To ensure the accuracy and reliability of the experimental results, all experiments were repeated three times, with each experiment performed independently.

In the case of `O=C(/C=C/c1cccc(O)c1)c1cccc(F)c1` [Compound F13, (E)-1-(3-fluorophenyl)-3-(3-hydroxyphenyl)propyl-2-en-1-one], the IC50 at 24 h [1] is reported as over 50 µM and the inhibition at 20 µM [2] is reported as 34 ± 8.74%.

In the case of `O=C(/C=C/c1ccc(O)cc1)c1cccc2ccccc12` [Compound W11, (E)-3-(4-hydroxyphenyl)-1-(naphthalene-1-yl)propyl-2-en-1-one], the IC50 at 24 h [1] is reported as over 50 µM and the inhibition at 20 µM [2] is reported as 88.3 ± 7.01%.

`O=C(/C=C/c1cccc(O)c1)c1ccccc1` [Compound F4, (E)-3-(3-hydroxyphenyl)-1-phenylpropyl-2-en-1-one] showed an IC50 at 24 h [1] of over 50 µM and an inhibition at 20 µM [2] of 25.6 ± 9.03%.

Work on `O=C(/C=C/c1ccc(O)cc1)c1ccc(Cl)cc1` [Compound W7, (E)-1-(4-chlorophenyl)-3-(4-hydroxyphenyl)propyl-2-en-1-one] yielded an IC50 at 24 h [1] of over 50 µM and an inhibition at 20 µM [2] of 24.3 ± 3.67%.

For `O=C(/C=C/c1ccccc1O)c1ccc(Br)cc1` [Compound F9, (E)-1-(4-bromophenyl)-3-(2-hydroxyphenyl)propyl-2-en-1-one], the IC50 at 24 h [1] was over 50 µM and the inhibition at 20 µM [2] was 28.4 ± 5.76%.

For `O=C(/C=C/c1ccccc1O)c1ccccc1` [Compound F1], the IC50 at 24 h [1] was over 50 µM and the inhibition at 20 µM [2] was 52.1 ± 3.72%.

`O=C(/C=C/c1cccc(O)c1)c1ccc(Br)cc1` [Compound F10, (E)-1-(4-bromophenyl)-3-(3-hydroxyphenyl)propyl-2-en-1-one] gave an IC50 at 24 h [1] of over 50 µM and an inhibition at 20 µM [2] of 24.2 ± 7.91%.

With `Cc1ccc(C(=O)/C=C/c2ccccc2O)c(C)c1` [Compound F11, (E)-1-(2,4-dimethylphenyl)-3-(2-hydroxyphenyl)propyl-2-en-1-one] the IC50 at 24 h [1] was over 50 µM and the inhibition at 20 µM [2] was 88.7 ± 9.22%.

Work on `COc1cccc(C(=O)/C=C/c2cccc(O)c2)c1` [Compound F3, (E)-3-(3-hydroxyphenyl)-1-(3-methoxyphenyl)propyl-2-en-1-one] yielded an IC50 at 24 h [1] of over 50 µM and an inhibition at 20 µM [2] of 93.4 ± 2.98%.

With `O=C(/C=C/c1ccc(O)cc1)c1ccccc1` [Compound W1, (E)-3-(4-hydroxyphenyl)-1-phenylprop-2-en-1-one] the IC50 at 24 h [1] was over 50 µM and the inhibition at 20 µM [2] was 17.8 ± 3.45%.

In the case of `O=C(/C=C/c1ccccc1O)c1cccs1` [Compound F16, (E)-3-(2-hydroxyphenyl)-1-(thiophene-2-yl)propion-2-en-1-one], the IC50 at 24 h [1] is reported as over 50 µM and the inhibition at 20 µM [2] is reported as 92.6 ± 3.23%.

Compound `CC(C)(O)c1coc(S(=O)(=O)NC(=O)Nc2c3c(cc4c2CCC4)CCC3)c1` [MCC950, reference compound] has an IC50 at 24 h [1] of over 50 µM.

In the case of `Cc1ccc(C(=O)/C=C/c2ccc(O)cc2)cc1C` [Compound W9, (E)-1-(3,4-dimethylphenyl)-3-(4-hydroxyphenyl)propyl-2-en-1-one], the IC50 at 24 h [1] is reported as over 50 µM and the inhibition at 20 µM [2] is reported as 10.3 ± 6.43%.

For `O=C(/C=C/c1ccc(O)cc1)c1ccccc1Cl` [Compound W5, (E)-1-(2-chlorophenyl)-3-(4-hydroxyphenyl)propion-2-en-1-one], the IC50 at 24 h [1] was over 50 µM and the inhibition at 20 µM [2] was 51.7 ± 2.23%.

In the case of `O=C(/C=C/c1ccccc1O)c1ccc(Cl)cc1` [Compound F8, (E)-1-(4-chlorophenyl)-3-(2-hydroxyphenyl)propyl-2-en-1-one], the IC50 at 24 h [1] is reported as over 50 µM and the inhibition at 20 µM [2] is reported as 45.9 ± 3.45%.

With `COc1cccc(C(=O)/C=C/c2ccc(O)cc2)c1` [Compound W2, (E)-3-(4-hydroxyphenyl)-1-(3-methoxyphenyl)propyl-2-en-1-one] the IC50 at 24 h [1] was over 50 µM and the inhibition at 20 µM [2] was 67 ± 1.23%.

Compound `O=C(/C=C/c1ccccc1O)c1ccccc1Cl` [Compound F7, (E)-1-(2-chlorophenyl)-3-(2-hydroxyphenyl)propyl-2-en-1-one] has an IC50 at 24 h [1] of over 50 µM and an inhibition at 20 µM [2] of 94.8 ± 3.29%.

`Cc1ccc(C(=O)/C=C/c2cccc(O)c2)cc1C` [Compound F12, (E)-1-(3,4-dimethylphenyl)-3-(3-hydroxyphenyl)propyl-2-en-1-one] showed an IC50 at 24 h [1] of over 50 µM and an inhibition at 20 µM [2] of 15.4 ± 4.13%.

For `COc1ccc(C(=O)/C=C/c2ccc(O)cc2)cc1` [Compound W4, (E)-3-(4-hydroxyphenyl)-1-(4-methoxyphenyl)propyl-2-en-1-one], the IC50 at 24 h [1] was over 50 µM and the inhibition at 20 µM [2] was 6.89 ± 4.78%.

Work on `O=C(/C=C/c1ccc(O)cc1)c1cccc(Cl)c1` [Compound W3, (E)-1-(3-chlorophenyl)-3-(4-hydroxyphenyl)propyl-2-en-1-one] yielded an IC50 at 24 h [1] of over 50 µM and an inhibition at 20 µM [2] of 21.8 ± 9.56%.

`COc1ccc(C(=O)/C=C/c2cccc(O)c2)cc1` [Compound F6, (E)-3-(3-hydroxyphenyl)-1-(4-methoxyphenyl)propyl-2-en-1-one] gave an IC50 at 24 h [1] of over 50 µM and an inhibition at 20 µM [2] of 25.1 ± 2.84%.

Compound `O=C(/C=C/c1ccc(O)cc1)c1cccc(F)c1` [Compound W10, (E)-1-(3-fluorophenyl)-3-(4-hydroxyphenyl)propyl-2-en-1-one] has an IC50 at 24 h [1] of over 50 µM and an inhibition at 20 µM [2] of 33.6 ± 3.21%.

`O=C(/C=C/c1ccccc1O)c1cccc2ccccc12` [Compound F15, (E)-3-(2-hydroxyphenyl)-1-(naphthale-1-yl)propyl-2-en-1-one] showed an IC50 at 24 h [1] of over 50 µM and an inhibition at 20 µM [2] of 91.7 ± 5.89%.

Compound `Cc1ccc(C(=O)/C=C/c2ccc(O)cc2)c(C)c1` [Compound W8, (E)-1-(2,4-dimethylphenyl)-3-(4-hydroxyphenyl)propyl-2-en-1-one] has an IC50 at 24 h [1] of over 50 µM and an inhibition at 20 µM [2] of 88.9 ± 5.91%.
